Measured values published in patent US11518763B2 (SCOHIA PHARMA, INC., priority 2018, dated 2022).
Like-named read-outs stand apart in the source and are kept apart here.

Experiments:
[1] = amide bond, DMF, 25.0 °C, 4.0 h
Nqo1 mRNA = assay: Expression of NRF2-downstream gene Nqo1 mRNA in rat kidney and liver after oral administration; type: in vivo; settings: 17 h, male SD rats, 3 mg/kg oral, about 17 hours after administration, read-out: Nqo1 mRNA expression (fold change vs vehicle)
Description: Test Example 2: Activity of Compound on Expression of NRF2-Downstream Gene in Rat Kidney and Liver
For the NRF2-downstream gene, Nqol mRNA was examined in regard to the expression level in kidney. Compounds were prepared into 0.5% methylcellulose (MC, METOLOSE, Shin-Etsu Chemical Co., Ltd.) suspensions, and were orally administered to male SD rats (CLEA Japan, Inc.) in a dose of 5 mL/kg. About 17 hours after the administration, the rats were euthanized under anesthesia, and their kidneys and livers were collected. By using an extraction kit, QIAsymphony RNA kit (QIAGEN, catalog number 931636) or RNeasy 96 Kit (QIAGEN, catalog number 74182), total RNA was extracted. From the total RNA thus obtained, cDNA was produced by using a cDNA synthesis kit, Superscript IV VIVO Master Mix (Thermo Fisher Scientific, catalog number 11754-250). By using the cDNA thus obtained with Taqman Fast Advanced Master Mix (Thermo Fisher Scientific, catalog number 4444557) or Platinum Quantitative PCR SuperMix (Thermo Fisher Scientific, catalog number 11743-500), and primers and a probe, the sequences of SEQ ID NO:1. SEQ ID NO:2, and SEQ ID NO: 3, which are shown in Table 4, real-time quantitative PCR was conducted with 7900HT Fast Real-Time PCR Systems or ViiA7 Fast Real-Time PCR Systems (Applied Biosystems). The expression level of Nqol mRNA in each organ of the rat to which the vehicle, 0.5% MC solution, was administered is defined as 1, and the variation is shown in Table 5.

[2] = target: T1, binding between NRF2 and KEAP1 (biotinylated human KEAP1 protein (Kelch domain), TAMRA-labeled NRF2 peptide) (Homo sapiens, UniProt Q14145); assay: Measurement of activity of inhibiting NRF2 binding (NRF2-KEAP1 TR-FRET); settings: inhibition rate relative to control at 100 nM test compound, TR-FRET, 60 min at room temperature; for inhibition at 0.1 µM: read-out: NRF2 binding inhibitory activity (at 100 nM)
T1 construct: biotinylated human KEAP1 protein (Kelch domain); biotin (biotinylated)
Description: Test Example 1: Measurement of Activity of Inhibiting NRF2 Binding
The inhibitory activity of test compounds against the binding between NRF2 and KEAP1 was measured by Time Resolved Fluorescence Resonance Energy Transfer (TR-FRET) method. Into a 384 well plate, 2 μL of a compound, 2 μL of 2 nM solution of biotinylated human KEAP1 protein (Kelch domain), 2 μL of 14 nM solution of TAMRA-labeled NRF2 peptide (TAMRA-Abu(4)-VWYTDIRMRDWM-OH), and 2 μL of 2 nM solution of Tb-labeled streptavidin, all solutions diluted with assay buffer (25 mM HEPES, pH7.5, 150 mM NaCl, 0.01% Tween-20), were added. For some wells, the KEAP1 protein was not added to define control wells. The plate was incubated at room temperature for 60 minutes, and time-resolved fluorescence was measured with a plate reader Envision (manufactured by PerkinElmer). The inhibitory activity for each compound at a compound concentration of 100 nM were calculated as a relative activity value by setting the fluorescence intensity of control wells to which the KEAP1 protein was not added as 100% inhibition, and the fluorescence intensity of wells to which no compound was added as 0%.
The measurement results according to the method described above (inhibition rate of signal value relative to control at 100 nM of test compound) are shown in Table 3.

T1 sequence (Q14145 321-609 limits assumed): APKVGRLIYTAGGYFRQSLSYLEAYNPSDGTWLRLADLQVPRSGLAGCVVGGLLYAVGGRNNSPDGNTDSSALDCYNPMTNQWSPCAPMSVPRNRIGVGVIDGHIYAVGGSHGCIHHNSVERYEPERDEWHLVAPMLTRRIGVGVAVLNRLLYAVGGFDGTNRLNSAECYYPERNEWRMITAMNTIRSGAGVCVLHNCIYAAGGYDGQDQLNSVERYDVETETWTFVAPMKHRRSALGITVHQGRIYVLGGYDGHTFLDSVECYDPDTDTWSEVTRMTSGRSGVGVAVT

| SMILES | inhibition at 0.1 µM [2] | fold induction at 3 mg/kg (Nqo1 mRNA; Kidney) | also measured |
| --- | --- | --- | --- |
| COC(=O)C(C)(C)C1c2ccc3c(c2)CN(CC3)C(=O)c2c(Cl)cc(cc2Cl)OCCCCn2nnc3c(C)c1ccc32 (stereo not shown) | – | – | ring closure, yield of all isomers ([1]; from COC(=O)C(C)(C)C(c1ccc2c(c1)CNCC2)c1ccc2c(nnn2CCCCOc2cc(Cl)c(C(=O)O)c(Cl)c2)c1C, HATU/DIPEA, 15.2 mM): 47.5% |
| Cc1c2ccc3c1nnn3CCCOCc1ccc(cc1)C(=O)N1CCc3ccc(cc3C1)C2CC(=O)O (stereo not shown) [Example 25, [32-Methyl-20-oxo-14-oxa-8,9,10,21-tetraazahexacyclo[19.5.3.2^16,19.1^3,7.0^6,10.0^24,28]dotriaconta-1(26),3(32),4,6,8,16,18,24,27,30-decaen-2-yl]acetic acid] | 100% | 6.5 | fold induction at 3 mg/kg (Nqo1 mRNA; Liver): 22.2 |
| Cc1c2ccc3c1nnn3CCCCCc1ccc(c3c1OCC3)C(=O)N1CCc3ccc(cc3C1)C2CC(=O)O (racemic) [Example 4, [33-Methyl-2-oxo-7-oxa-1,15,16,17-tetraazaheptacyclo[22.5.3.2^3,9.1^18,22.0^4,8.0^15,19.0^27,31]pentatriaconta-3,8,16,18(33),19,21,24,26,31,34-decaen-23-yl]acetic acid] | 100% | 6.8 | – |
| Cc1c2ccc3c1nnn3CCCOCc1ccc(c(F)c1)C(=O)N1CCc3ccc(cc3C1)C2CC(=O)O (racemic) [Example 21, [18-Fluoro-32-methyl-20-oxo-14-oxa-8,9,10,21-tetraazahexacyclo[19.5.3.2^16,19.1^3,7.0^6,10.0^24,28]dotriaconta-1(26),3(32),4,6,8,16,18,24,27,30-decaen-2-yl]acetic acid] | 100% | 5 | – |
| CCc1cc2ccc1C(=O)N1CCc3ccc(cc3C1)C(CC(=O)O)c1ccc3c(nnn3CCCCC2)c1C (racemic) [Example 3, [18-Ethyl-32-methyl-20-oxo-8,9,10,21-tetraazahexacyclo[19.5.3.2^16,19.1^3,7.0^6,10.0^24,28]dotriaconta-1(26),3(32),4,6,8,16,18,24,27,30-decaen-2-yl]acetic acid] | 100% | 4.7 | – |
| COC(=O)C(C)(C)C1c2ccc3c(c2)CN(CC3)C(=O)c2c(C)cc(cc2C)COCCCn2nnc3c(C)c1ccc32 (stereo not shown) | – | – | ring closure, yield of all isomers ([1]; from COC(=O)C(C)(C)C(c1ccc2c(c1)CNCC2)c1ccc2c(nnn2CCCOCc2cc(C)c(C(=O)O)c(C)c2)c1C, HATU, 30.4 mM): 29.6% |
| Cc1c2ccc3c1nnn3CCCCCc1ccc(c(F)c1)C(=O)N1CCc3ccc(cc3C1)C2CC(=O)O (racemic) [Example 10, [18-Fluoro-32-methyl-20-oxo-8,9,10,21-tetraazahexacyclo[19.5.3.2^16,19.1^3,7.0^6,10.0^24,28]dotriaconta-1(26),3(32),4,6,8,16,18,24,27,30-decaen-2-yl]acetic acid] | 100% | 5.9 | – |
| Cc1c2ccc3c1nnn3CCCCCc1ccc(cc1)C(=O)N1CCc3ccc(cc3C1)C2C(C)(C)C(=O)O (stereo not shown) [Example 62, 2-methyl-2-[32-methyl-20-oxo-8,9,10,21-tetrazahexacyclo[19.5.3.2^16,19.1^3,7.0^6,10.0^24,28]dotriaconta-1(27),3(32),4,6,8,16(31),17,19(30),24(28),25-decaen-2-yl]propanoic acid] | – | 6.9 | NRF2 binding inhibitory activity (at 100 nM) ([2]; 0.1 µM): 100% |
| Cc1c2ccc3c1nnn3CCCCCc1ccc(c3c1OC(C)(C)C3)C(=O)N1CCc3ccc(cc3C1)C2CC(=O)O (racemic) [Example 5, [6,6,33-Trimethyl-2-oxo-7-oxa-1,15,16,17-tetraazaheptacyclo[22.5.3.2^3,9.1^18,22.0^4,8.0^15,19.0^27,31]pentatriaconta-3,8,16,18(33),19,21,24,26,31,34-decaen-23-yl]acetic acid] | 100% | 3.3 | – |
| Cc1c2ccc3c1nnn3CCOCCc1ccc(cc1)C(=O)N1CCc3ccc(cc3C1)C2CC(=O)O (racemic) [Example 29, [32-Methyl-20-oxo-13-oxa-8,9,10,21-tetraazahexacyclo[19.5.3.2^16,19.1^3,7.0^6,10.0^24,28]dotriaconta-1(26),3(32),4,6,8,16,18,24,27,30-decaen-2-yl]acetic acid] | 100% | 5.9 | – |
| COC(=O)C(C)(C)C1c2ccc3c(c2)CN(CC3)C(=O)c2ccc(cc2)COCCCn2nnc3c(C)c1ccc32 (stereo not shown) | – | – | ring closure, yield of all isomers ([1]; from COC(=O)C(C)(C)C(c1ccc2c(c1)CNCC2)c1ccc2c(nnn2CCCOCc2ccc(C(=O)O)cc2)c1C, HATU, 18.6 mM): 20.7% |
| Cc1c2ccc3c1nnn3CCCCCc1ccc(c3c1CCO3)C(=O)N1CCc3ccc(cc3C1)C2CC(=O)O (racemic) [Example 7, [33-Methyl-2-oxo-5-oxa-1,15,16,17-tetraazaheptacyclo[22.5.3.2^3,9.1^18,22.0^4,8.0^15,19.0^27,31]pentatriaconta-3,8,16,18(33),19,21,24,26,31,34-decaen-23-yl]acetic acid] | 100% | 4.3 | – |
| Cc1c2ccc3c1nnn3CCCCCc1ccc(cc1)C(=O)N1CCc3ccc(cc3C1)C2CC(=O)O (stereo not shown) [Example 11, [32-Methyl-20-oxo-8,9,10,21-tetraazahexacyclo[19.5.3.2^16,19.1^3,7.0^6,10.0^24,28]dotriaconta-1(26),3(32),4,6,8,16,18,24,27,30-decaen-2-yl]acetic acid] | 100% | 8 | – |

Now from value to compound, other results behind:

| inhibition at 0.1 µM [2] | SMILES | fold induction at 3 mg/kg (Nqo1 mRNA; Kidney) | also measured |
| --- | --- | --- | --- |
| 100% | Cc1c2ccc3c1nnn3CCCCCc1ccc(c(Cl)c1)C(=O)N1CCc3ccc(cc3C1)C2CC(=O)O (racemic) [Example 9, [18-Chloro-32-methyl-20-oxo-8,9,10,21-tetraazahexacyclo[19.5.3.2^16,19.1^3,7.0^6,10.0^24,28]dotriaconta-1(26),3(32),4,6,8,16,18,24,27,30-decaen-2-yl]acetic acid] | 5.5 | – |
| 100% | Cc1c2ccc3c1nnn3CCCOCc1ccc(cc1)C(=O)N1CCc3ccc(cc3C1)C2C(C)(C)C(=O)O (stereo not shown) [Example 55, 2-methyl-2-[32-methyl-20-oxo-14-oxa-8,9,10,21-tetrazahexacyclo[19.5.3.2^16,19.1^3,7.0^6,10.0^24,28]dotriaconta-1(27),3(32),4,6,8,16,18,24(28),25,30-decaen-2-yl]propanoic acid] | 6.3 | – |
| 100% | Cc1cc2cc(C)c1C(=O)N1CCc3ccc(cc3C1)C(C(C)(C)C(=O)O)c1ccc3c(nnn3CCCOC2)c1C (stereo not shown) [Example 58, 2-methyl-2-[18,30,32-trimethyl-20-oxo-14-oxa-8,9,10,21-tetrazahexacyclo[19.5.3.2^16,19.1^3,7.0^6,10.0^24,28]dotriaconta-1(27),3(32),4,6,8,16(31),17,19(30),24(28),25-decaen-2-yl]propanoic acid] | 4.8 | – |
| 100% | Cc1c2ccc3c1nnn3CCCOCc1cc(Cl)c(c(Cl)c1)C(=O)N1CCc3ccc(cc3C1)C2C(C)(C)C(=O)O (stereo not shown) [Example 60, 2-[18,30-dichloro-32-methyl-20-oxo-14-oxa-8,9,10,21-tetrazahexacyclo[19.5.3.2^16-19.1^3,7.0^6,10.0^24,28]dotriaconta-1(27),3(32),4,6,8,16,18,24(28),25,30-decaen-2-yl]-2-methylpropanoic acid] | 2.9 | – |
| 100% | Cc1c2ccc3c1nnn3CCCCOc1cc(Cl)c(c(Cl)c1)C(=O)N1CCc3ccc(cc3C1)C2C(C)(C)C(=O)O (stereo not shown) [Example 65, 2-[18,30-dichloro-32-methyl-20-oxo-15-oxa-8,9,10,21-tetrazahexacyclo[19.5.3.2^16,19.1^3,7.0^6,10.0^24,28]dotriaconta-1(27),3(32),4,6,8,16(31),17,19(30),24(28),25-decaen-2-yl]-2-methylpropanoic acid] | 3.6 | – |
